# Measurements from ChEMBL document CHEMBL1123698, “alpha-Methylproline-containing renin inhibitory peptides: in vivo evaluation in an anesthetized, ganglion-blocked, hog renin infused rat model” (J Med Chem, 1987).
# pIC50: −log10 of the molar value. Square brackets hold non-standard residues; d marks the D form. Peptide text beside a SMILES is read from it. * marks the point of attachment. Sta = CC(C)C[C@H](N)[C@@H](O)CC(=O)O; NHCH2(2-pyridyl) = c1ccc(CN*)nc1; αMeP = C[C@@]1(C(=O)O)CCCN1; Boc = CC(C)(C)OC(=O)*
# Legend:
# Renin = target: T1, Renin (Homo sapiens, UniProt P00797); experiment: In vitro inhibition against human plasma renin.; type: cell-free
# T1 sequence (P00797 whole entry): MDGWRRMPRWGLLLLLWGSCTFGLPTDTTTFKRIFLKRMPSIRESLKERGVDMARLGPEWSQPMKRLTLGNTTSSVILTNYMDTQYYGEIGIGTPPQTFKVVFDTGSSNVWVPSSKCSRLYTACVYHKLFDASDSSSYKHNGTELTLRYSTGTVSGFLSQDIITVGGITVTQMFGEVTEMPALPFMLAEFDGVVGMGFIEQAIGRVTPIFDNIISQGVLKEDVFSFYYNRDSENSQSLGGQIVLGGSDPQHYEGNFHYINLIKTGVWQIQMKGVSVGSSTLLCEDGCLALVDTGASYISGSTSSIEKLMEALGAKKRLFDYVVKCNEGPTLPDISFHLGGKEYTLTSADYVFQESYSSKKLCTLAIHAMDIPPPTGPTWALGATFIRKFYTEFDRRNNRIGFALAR
# Renin (Sus scrofa) = experiment: In vitro inhibition against hog renin.
SMILES,pIC50 (Renin),pIC50 (Renin (Sus scrofa))
CC[C@H](C)[C@H](NC(=O)C[C@H](O)[C@H](CC(C)C)NC(=O)[C@H](Cc1ccccc1)NC(=O)[C@H](Cc1ccccc1)NC(=O)[C@]1(C)CCCN1C(=O)OC(C)(C)C)C(=O)NCc1ccccn1 (Boc-[αMeP]FF[Sta]I-{NHCH2(2-pyridyl)}),7.44,
CC[C@H](C)[C@H](NC(=O)[C@@H](NC[C@H](O)[C@H](CC(C)C)NC(=O)[C@H](Cc1c[nH]cn1)N(C)C(=O)[C@H](Cc1ccccc1)NC(=O)[C@@H]1CCCN1C(=O)OC(C)(C)C)C(C)C)C(=O)NCc1ccccn1,,7.40
CC[C@H](C)[C@H](NC(=O)C[C@H](O)[C@H](CC(C)C)NC(=O)[C@H](Cc1c[nH]cn1)NC(=O)[C@H](Cc1ccccc1)NC(=O)[C@]1(C)CCCN1C(=O)OC(C)(C)C)C(=O)NCc1ccccn1 (Boc-[αMeP]FH[Sta]I-{NHCH2(2-pyridyl)}),8.46,
CC[C@H](C)[C@H](NC(=O)[C@@H](NC[C@H](CC(C)C)NC(=O)[C@H](Cc1c[nH]cn1)NC(=O)[C@H](Cc1ccccc1)NC(=O)[C@]1(C)CCCN1C(=O)OC(C)(C)C)C(C)C)C(=O)NCc1ccccn1,7.37,
